Experimental findings from patent publication EP1604643A1, “Cosmetic use of derivatives of 3-Phenylpropionic acid” (Cognis France, S.A.S., priority 2004, dated 2005) are described below.

Series [1] is described as follows: Anti hydroxyl radicals: HO° test with deoxyribose (Fenton's reaction). The following applies: no EDTA; optical density at 532 nm; average of 2 assays. The method, then: (§1) The anti-free radical (anti-FR) activity has been evaluated by chemical tests for the evaluation of the potential to scavenge free radicals R° (DPPH° test) and hydroxyl radicals HO°. Furthermore the anti-FR activity has been evaluated by biochemical tests to address the potential for scavenging of a kind of reactive oxygen species (ROS), so called superoxide anions (02°).
The hydroxyle radical HO* (formed by H2O2 in presence of Fe++) oxidises deoxyribose, then a pink compound is formed by condensation of thiobarbituric acid with the oxidised form of deoxyribose. The level of oxidised deoxyribose is determined by measurement of the optical density at 532 nm.

The nature of series [2]: Anti-inflammatory activity on human leucocytes cultured in vitro (Zymosan-induced respiratory burst, luminol luminescence). The following applies: human, leukocytes, % against control, average of 2-3 assays, each carried out 3 times, read-out: Cell number. Type of series: cell-based. On the procedure: (§2) Human leukocytes (Polymorphonuclear neutrophilic granulocytes) were incubated with dihydrosinapinic acid during 1 day at 37°C under an atmosphere with 5 % carbon dioxide. The respiratory burst was induced by addition of a yeast extract ("Zymosan"). After incubation for 0.5 hours at 37 °C under an atmosphere with 5 % carbon dioxide the cell number was measured using an automatic cell counter and the rate of released reactive oxygen species was recorded by a luminescent reaction with luminol. (Pieper G.M., Gross G.J. EMD 52692 (bimakalim) a new potassium channel opener, attenuates luminol-enhanced chemiluminescence and superoxide anion radical formation by Zymosan-activated polymorphonuclear leukocytes (Immunopharmacology (1992) vol 23, pp 191-197). Table 3

The test system of series [3] is Human leukocytes (Polymorphonuclear neutrophilic granulocytes). Described as above. Type of series: cell-based. On the procedure: as §2
Series [4] has as its target Lipoxygenase. In words: Inhibition test on lipoxygenase (released superoxide anions, luminol luminescent probes). Type of series: biochemical. Conditions: rate of released superoxide anions; mean of 2 assays. The method, then:
The anti-free radical (anti-FR) activity has been evaluated by chemical tests for the evaluation of the potential to scavenge free radicals R° (DPPH° test) and hydroxyl radicals HO°. Furthermore the anti-FR activity has been evaluated by biochemical tests to address the potential for scavenging of a kind of reactive oxygen species (ROS), so called superoxide anions (02°). […] Lipoxygenase was incubated with a specific substrate (unsaturated fatty acid) and the ingredient to be tested. Then the rate of released superoxide anions was evaluated by Luminol luminescent probes. The IC50 (mean of 2 assays) of dihydrosinapinic acid was 0.0002 % (w/v).

The test system of series [5] is Human fibroblasts. In words: Cytophotoprotection of human fibroblasts against UVA radiation (cell proteins, MDA released). Type of series: cell-based. Conditions: for activity at 0.01 % strength / activity at 0.03 % strength: Homo sapiens, Fibroblast, light or radiation study, % against control, UVA 20 J/cm2; for activity at 0.01 % strength: dose 0.01 % w/v; for activity at 0.03 % strength: dose 0.03 % w/v. The method, then:
The cytoprotection against UVA irradiation has been evaluated by a test on human fibroblasts because UVA radiation penetrates through the epidermis until the dermis where it induces oxidative stress, mainly by activation of photosensitising biological components, which catalyse the formation of ROS like anion superoxide, hydrogen peroxide and singlet oxygen, and lipoperoxydation of the cell membrane. These oxidative stress effects are evaluated in vitro due to measuring of the level of released malondialdehyde (MDA) (Morlière P., Moisan A., Santus R., Huppe G., Mazière J.C., Dubertret L. UV-A induced lipid peroxydation in cultured human fibroblasts. Biochim. Biophys. Acta (1991) Vol 1084, pp 261-269). The lipoperoxides formed after UVA irradiation undergo a decay into malondialdehyde which can form cross-links between many biological molecules like proteins with inhibition of enzymes and nucleic bases with risk of mutagenesis.
Human fibroblasts were inoculated with growth medium (DMEM+FCS) and incubated 3 days at 37°C, with 5% CO2. The growth medium was then exchanged by a medium containing the ingredient to be tested and was incubated 2 days at 37°C under an atmosphrere with 5 % of carbon dioxide. After the exchange of the medium bya balanced salt solution, the cell culture was irradiated with UVA radiation (20J/cm^2). Cell proteins were measured, and MDA released in the supernatant was determined spectrophotometrically.

Series [6] is described as follows: Anti free radicals: DPPH° (diphenylpicryl-hydrazyl) test. The following applies: optical density at 513 nm; average of two assays. The method, then:
as §1
The DPPH° scavenging effect of dihydrosinapinic acid has been measured by recording the optical density at 513 nm (DEBY C. Relation entre les acides gras essentiels et le taux des antioxydants tissulaires chez la souris. SOCIETE BELGE DE BIOLOGIE, séance du 19 décembre 1970, pp: 2675-2680). The IC50 (Inhibitory Concentration 50 %: dose for which 50 % of DPPH° is scavenged, average of two assays) of dihydrosinapinic acid is 0.0006 % (w/v).

[7] abbreviates: average of 2 assays, each carried out three times, read-out: Cell proteins.
[8] abbreviates: irradiated control = 100, read-out: MDA released.

Read-outs that look alike come from different tables or passages of the source.

Turning to `COc1cc(CCC(=O)O)cc(OC)c1O` [Dihydrosinapinic acid, 3-(4-hydroxy-3,5-dimethoxyphenyl) propionic acid], the “IC50 (HO° test with deoxyribose)” value in series [1] was 0.025 % (w/v). The viability in series [2] (dose 0.0001 % w/v) amounted to 99%; in series [2] (dose 0.0003 % w/v), 98%. Also, the activity at 0.0001 % strength in series [3] (Homo sapiens, Leukocyte, % against control, dose 0.0001 % w/v, Zymosan-activated, read-out: Released ROS) was determined as 25%. Moreover, in series [3] (Homo sapiens, Leukocyte, % against control, dose 0.0003 % w/v, Zymosan-activated, read-out: Released ROS), the activity at 0.0003 % strength is 13%. In addition, the “respiratory burst (release of reactive oxygen species)” value in series [3] (result in words, Zymosan-activated polymorphonuclear neutrophilic granulocytes) is reported as “inhibited”. The “IC50 (lipoxygenase inhibition)” value in series [4] is on record as 0.0002 % (w/v). In addition, the activity at 0.01 % strength is 121% in series [5] (setting [7]) and 47% in series [5] (setting [8]). Besides, the activity at 0.03 % strength in series [5] (setting [7]) came out at 140%; in series [5] (setting [8]), 12%. For the same compound, in series [5] (result in words, after incubation of the fibroblasts), the “protection of the cells against UVA-induced MDA released” value is reported as “strong protection”. For the same compound, the “IC50 (dose for which 50 % of DPPH° is scavenged)” value in series [6] was 0.0006 % (w/v).
